Measured values taken from patent publication US20240199571A1, “THIOPHENE COMPOUND AND APPLICATION THEREOF” (MEDSHINE DISCOVERY INC., priority 2021, published 2024).
Counter-ions that a name gives are not always drawn.

Tests used:
[1] = target: hERG potassium ion channels (Homo sapiens (Human), UniProt Q12809); assay: Experiment 4: hERG potassium ion channel inhibition, automated patch clamp (Qpatch), CHO-hERG cells; type: cell-based; details: highest test concentration 40 μM
Procedure: Experiment 4: hERG Potassium Ion Channel Inhibition Assay
Experimental purpose: To test the effects of the test examples on hERG potassium ion channels using an automated patch clamp method.
4.1.1 CHO-hERG cells were cultured in a 175 cm^2 culture flask. When the cell density grew from 60% to 80%, the culture medium was removed. The cells were washed once with 7 mL of PBS (Phosphate Buffered Saline), and then 3 mL of Detachin cell dissociation reagent was added thereto for digestion.
4.1.2 After the digestion was completed, 7 mL of culture medium was added thereto for neutralization, then the mixture was centrifuged, the supernatant was aspirated, and then 5 mL of culture medium was added thereto for resuspension to ensure a cell density of 2×10^6/mL to 5×10^6/ML.
The single-cell high-resistance sealing and whole-cell modeling formation processes were all automatically completed by the Qpatch instrument of the Shanghai Institute of Materia Medica, Chinese Academy of Sciences. After obtaining the whole-cell recording modeling, the cells were clamped at −80 mV, and before a 5-second +40 mV depolarizing stimulus was given, a 50-millisecond −50 mV prepulse was first given, then the voltage was repolarized to −50 mV and holden for 5 seconds, and finally returned to −80 mV. This voltage stimulus was applied every 15 seconds, recorded for 2 minutes, and then the extracellular fluid was recorded for 5 minutes, and then the administration process was initiated, with compound concentrations starting at the lowest test concentration. The voltage stimulus was given for 2.5 minutes for each test concentration, and after all concentrations had been continuously given, 3 μM the positive control compound, Cisapride, was given. At least 3 cells were tested per concentration (n≥3).
4.4.1 The compound stock solution was diluted with DMSO, and 20 μL of DMSO solution was added with 10 μL of the compound stock solution, and serially diluted 3-fold to 6 DMSO concentrations.
4.4.2 4 μL of 6 DMSO concentrations of compounds were taken respectively and added to 396 μL of extracellular fluid, and the mixture was diluted 100-fold to 6 intermediate concentrations, then 80 μL of 6 intermediate concentrations of compounds was taken and added to 320 μL of extracellular fluid, and the mixture was diluted 5-fold to the final test concentration.
4.4.3 The highest test concentration was 40 μM, and the concentrations were respectively 40, 13.3, 4.4, 1.48, 0.494, and 0.165 μM for a total of six concentrations.
4.4.5 The preparation of the compound was completed by the Bravo instrument throughout the dilution process.
Experimental data were analyzed by GraphPad Prism 5.0 software.

NCI-H1417 cells = assay: Experiment 2: inhibition of NCI-H1417 cell proliferation (CellTiter-Glo, 10 days); type: cell-based; details: Homo sapiens, 240 h, 10 days incubation
Procedure: Experiment 2: Evaluation of Inhibitory Activity on NCI-H1417 Cell Proliferation
Experimental purpose: To test the inhibitory activity of test compounds on NCI-H1417 cell proliferation.
Experimental materials: RPMI 1640 medium, fetal bovine serum, Promega CellTiter-Glo reagent. The NCI-H1417 cell line was purchased from ATCC. Envision multilabel plate reader (PerkinElmer).
Experimental method: The compounds were dissolved to 10 mM and 5-fold diluted with DMSO in the compound plates, starting with a concentration of 2 mM. 3-fold serial dilution was performed with Bravo to 10 concentrations. Then 250 nL of the compound solution was transferred to the upper and lower double duplicate wells of a blank 384 cell plate with Echo. To each well containing the transferred 250 nL of DMSO/compound was added a cell suspension of 1000 cells/50 μL per well, and the compound was diluted 200-fold, i.e., resulting in an initial working concentration of 10 μM. The cell plate was incubated in a carbon dioxide incubator for 10 days. To the cell plate was added 25 μL of Promega CellTiter-Glo reagent per well and the mixture was shaken for 10 minutes at room temperature to stabilize the luminescence signal. Readings were performed on a PerkinElmer Envision multilabel plate reader.
Data analysis: Raw data were converted into inhibition rate using the formula: (Max−Ratio)/(Max−Min)*100%. The IC50 values could then be derived from four-parameter curve fitting. (derived from 205 mode in XLFIT5, iDBS)
The compounds were tested for inhibitory activity of compounds on NCI-H1417 cell proliferation, and the results are shown in Table 3.

[2] = Experiment 3: pharmacokinetic evaluation in CD-1 mice (IV and oral); type: in vivo; details: mouse, plasma, male CD-1 mice
Procedure: Experiment 3: Pharmacokinetic Evaluation of Compounds
Experimental purpose: To test the pharmacokinetics of compounds in CD-1 mice in vivo
CD-1 mice (male/female, 7 to 9 weeks old, Shanghai SLAC)
The pharmacokinetic characteristics of the compounds in rodents after intravenous injection and oral administration were tested according to the standard protocol. In the experiment, the candidate compound was formulated into clear solutions, and a single intravenous injection and oral administration were given to mice. The vehicle for intravenous injection and oral administration was a mixed vehicle composed of 10% dimethyl sulfoxide and 90% hydroxypropyl β-cyclodextrin with a content of 10%. In this project, four male/female CD-1 mice were used. Two mice were injected intravenously at a dose of 1 mg/kg, and plasma samples were collected at 0.083, 0.25, 0.5, 1, 2, 4, 8, and 24 hours after administration; the other two were administered orally by gavage at a dose of 2 mg/kg, and plasma samples were collected at 0.25, 0.5, 1, 2, 4, 8, and 24 hours after administration. The samples were centrifuged at 3200 g for 10 minutes at 4° C., and plasma samples were obtained by separating the supernatant. A methanol solution containing internal standard with 20 times the volume of the sample was added thereto to precipitate the protein, and the mixture was centrifuged at 12000 g for 15 minutes at 4° C. 50 μL of the supernatant was taken and transferred to a 96-well plate and centrifuged again. The supernatant was taken for sampling. The plasma concentration was quantitatively analyzed using LC-MS/MS analysis method, and pharmacokinetic parameters, such as peak concentration (Cmax), clearance rate (CL), half-life (T1/2), volume of distribution at steady state (Vdss), area under drug-time curve (AUC0-last), bioavailability (F).

human LSD1 = human LSD1 (Homo sapiens (Human), UniProt O60341); assay: Experiment 1B: in vitro LSD1 enzyme activity, enzyme-coupled fluorescence (HRP/Amplex Red), H3(1-21)K4me2 peptide 10 μM (Reaction Biology); type: biochemical; details: histone H3(1-21)K4me2 peptide 10 μM
Procedure: Experiment 1B: Evaluation of Enzyme Activity
Testing unit: Reaction Biology Corp., USA.
The purpose of the assay was to test the in vitro inhibitory activity of the compounds against LSD1. The enzyme used in the assay was human LSD1, and the standard substrate was histone H3(1-21)K4me2 peptide (10 μM). The activity of the compounds was determined by the enzyme-coupling fluorescent method by the combined detection of H2O2 generated after the reaction of LSD1 by horseradish peroxidase (HRP) and the fluorescent reagent Amplex Red. Starting from 10 μM, the compounds were 3-fold diluted to detect the IC50 values of the compounds at 10 concentrations. The enzyme and substrate were incubated for 30 minutes before the compound was added to the substrate to start the reaction. Fluorescence detector: EnVision, excitation wavelength: Ex/Em=535/590 nM.

Sequence of hERG potassium ion channels (Q12809 whole entry): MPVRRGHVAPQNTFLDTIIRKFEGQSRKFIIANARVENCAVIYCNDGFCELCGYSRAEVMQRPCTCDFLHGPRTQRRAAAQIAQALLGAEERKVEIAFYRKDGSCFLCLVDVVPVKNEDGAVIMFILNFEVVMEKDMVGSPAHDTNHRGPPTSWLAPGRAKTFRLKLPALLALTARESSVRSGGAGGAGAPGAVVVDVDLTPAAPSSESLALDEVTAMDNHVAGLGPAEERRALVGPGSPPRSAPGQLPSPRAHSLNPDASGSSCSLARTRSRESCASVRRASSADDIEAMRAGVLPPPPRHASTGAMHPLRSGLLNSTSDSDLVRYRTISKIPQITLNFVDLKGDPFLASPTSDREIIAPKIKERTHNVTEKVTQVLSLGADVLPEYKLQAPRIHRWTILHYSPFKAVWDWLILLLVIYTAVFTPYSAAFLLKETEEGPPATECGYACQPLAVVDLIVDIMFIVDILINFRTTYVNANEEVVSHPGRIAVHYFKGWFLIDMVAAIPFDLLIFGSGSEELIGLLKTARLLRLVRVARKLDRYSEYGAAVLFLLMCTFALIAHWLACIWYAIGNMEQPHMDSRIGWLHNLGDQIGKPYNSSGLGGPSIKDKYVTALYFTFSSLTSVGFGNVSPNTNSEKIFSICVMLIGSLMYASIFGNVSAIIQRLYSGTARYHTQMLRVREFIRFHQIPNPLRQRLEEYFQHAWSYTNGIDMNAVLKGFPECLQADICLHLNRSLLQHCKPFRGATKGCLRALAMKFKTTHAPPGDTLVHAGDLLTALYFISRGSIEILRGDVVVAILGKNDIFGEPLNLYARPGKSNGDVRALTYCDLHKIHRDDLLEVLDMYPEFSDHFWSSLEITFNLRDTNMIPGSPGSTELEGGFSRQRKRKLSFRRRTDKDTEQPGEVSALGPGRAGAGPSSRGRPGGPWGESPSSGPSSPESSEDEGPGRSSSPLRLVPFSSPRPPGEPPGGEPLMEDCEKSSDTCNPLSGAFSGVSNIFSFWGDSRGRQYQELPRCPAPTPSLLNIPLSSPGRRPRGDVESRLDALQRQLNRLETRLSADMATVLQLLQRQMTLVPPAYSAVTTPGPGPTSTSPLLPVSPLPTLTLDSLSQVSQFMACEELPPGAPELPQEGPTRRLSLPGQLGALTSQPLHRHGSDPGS

Structure (SMILES) | IC50 (NCI-H1417 cells) [nM] | IC50 (human LSD1) [nM] | IC50 [1] [nM] | also measured
CC1(O)CN(C(=O)c2ccc(-c3sc(C(=O)N4CCC[C@@H](N)C4)cc3-c3ccc(C#N)c(F)c3)cc2)C1 [Compound 81] |  |  | > 40000 | 
N#Cc1ccc(-c2cc(C(=O)N3CCC[C@@H](N)C3)sc2-c2ccc3oncc3c2)cc1F [Compound 77] |  |  | > 40000 | 
N#Cc1ccc(-c2cc(C(=O)N3CCC[C@@H](N)C3)sc2-c2ccc3nn(C4COC4)cc3c2)cc1F [Compound 70] | 9.88 |  | 18700 | 
Cn1cc(-c2sc(C(=O)N3CCC[C@@H](N)C3)cc2-c2ccc(C#N)c(F)c2)ccc1=O [Hydrochloride of compound 32] |  |  | > 40000 | 
CC(C)(O)c1ccc(-c2sc(C(=O)N3CCC[C@@H](N)C3)cc2-c2ccc(C#N)c(F)c2)cc1 [Compound 50] | 9.19 | 28.3 |  | 
N#Cc1ccc(-c2cc(C(=O)N3CCC[C@@H](N)C3)sc2-c2cnc(N)nc2)cc1F [Hydrochloride of compound 45] |  |  | 32600 | 
N#Cc1ccc(-c2cc(C(=O)N3CCC[C@@H](N)C3)sc2-c2ccc3nncn3c2)cc1F [Compound 67] |  |  | > 40000 | 
N#Cc1ccc(-c2cc(C(=O)N3CCC[C@@H](N)C3)sc2-c2ccn3nccc3c2)cc1F [Compound 75] | 28 | 28.9 |  | 
CC(C)(O)Cn1cc2cc(-c3sc(C(=O)N4CCC[C@@H](N)C4)cc3-c3ccc(C#N)c(F)c3)cnc2n1 [Compound 61] |  |  | > 40000 | 
CC(C)(O)Cn1ncc2cc(-c3sc(C(=O)N4CCC[C@@H](N)C4)cc3-c3ccc(C#N)c(F)c3)ccc21 [Compound 57] | 1.53 | 10.4 |  | 
N#Cc1ccc(-c2cc(C(=O)N3CCC[C@@H](N)C3)sc2-c2ccn3cnnc3c2)cc1F [Compound 76] |  |  | > 40000 | 

Continued, in another order:

IC50 (NCI-H1417 cells) [nM] | IC50 (human LSD1) [nM] | Structure (SMILES) | IC50 [1] [nM] | also measured
16.1 | 20.2 | COC1CC(n2cc3cc(-c4sc(C(=O)N5CCC[C@@H](N)C5)cc4-c4ccc(C#N)c(F)c4)ccc3n2)C1 (some centres unmarked) [Hydrochloride of compound 80] |  | clearance ([2]; IV 1 mg/kg, read-out: Clearance rate CL): 33.7 mL/min/kg; half-life ([2]; IV 1 mg/kg, read-out: Half life T1/2 (IV, h) (converted)): 1.93 h; Vd ([2]; IV 1 mg/kg, read-out: Volume of distribution at steady state Vdss): 4.89 L/kg; bioavailability ([2]; PO 2 mg/kg vs IV 1 mg/kg, read-out: Bioavailability F (%)): 31.9%; AUC(0-t) ([2]; PO 2 mg/kg, read-out: Area under drug-time curve AUC0-last PO): 0.576 µM·h; Cmax ([2]; single dose, oral 2 mg/kg, read-out: Peak concentration Cmax): 109 nM
9.92 | 36.5 | Cn1c(=O)oc2ccc(-c3sc(C(=O)N4CCC[C@@H](N)C4)cc3-c3ccc(C#N)c(F)c3)cc21 [Hydrochloride of compound 34] |  | 
8.84 | 24.6 | CN1Cc2ccc(-c3sc(C(=O)N4CCC[C@@H](N)C4)cc3-c3ccc(C#N)c(F)c3)cc2C1=O [Hydrochloride of compound 35] |  | 
8.87 | 70.6 | CS(=O)(=O)c1ccc(-c2sc(C(=O)N3CCC[C@@H](N)C3)cc2-c2ccc(C#N)c(F)c2)cc1 [Hydrochloride of compound 44] |  | 
2.32 | 14.2 | N#Cc1ccc(-c2cc(C(=O)N3CCC[C@@H](N)C3)sc2-c2ccc(N3CCC(O)C3)cc2)cc1F (some centres unmarked) [Hydrochloride of compound 85] |  | 
4.47 | 8.56 | N#Cc1ccc(-c2cc(C(=O)N3CCC[C@@H](N)C3)sc2-c2ccc3nn(C4CCOC4)cc3c2)cc1F (some centres unmarked) [Hydrochloride of compound 72] |  | 
2.03 | 10.7 | CN[C@@H]1CCCN(C(=O)c2cc(-c3ccc(C#N)c(F)c3)c(-c3ccc(N4CC[C@@H](O)C4)cc3)s2)C1 [Hydrochloride of compound 109] |  | 
3.47 | 9.84 | N#Cc1ccc(-c2cc(C(=O)N3CCC[C@@H](N)C3)sc2-c2ccc(N3CC[C@@H](O)C3)cc2)cc1F [Hydrochloride of compound 110] |  | 
32.3 | 19.4 | COc1ccc(-c2sc(C(=O)N3CC[C@@H](F)[C@@H](N)C3)cc2-c2ccc(C#N)c(F)c2)cc1F [Hydrochloride of compound 20] |  | 
11.3 | 26.7 | N#Cc1ccc(-c2cc(C(=O)N3CCC[C@@H](N)C3)sc2-c2ccc3[nH]c(=O)oc3c2)cc1F [Hydrochloride of compound 31] |  | 
31.4 | 56.9 | CC(C)(CO)n1cc2cc(-c3sc(C(=O)N4CCCNCC4)cc3-c3ccc(C#N)c(F)c3)ccc2n1 [Hydrochloride of compound 102] |  | 
31.6 | 13.8 | CC1(O)CN(c2ccc(-c3sc(C(=O)N4CCC[C@@H](N)C4)cc3-c3ccc(C#N)c(F)c3)cc2)C1 [Hydrochloride of compound 118] |  | 
40.2 | 19 | N#Cc1ccc(-c2cc(C(=O)N3CCCNCC3)sc2-c2ccc(N3CC[C@@H](O)C3)cc2)cc1F [Hydrochloride of compound 117] |  | 
16.2 | 29.6 | N#Cc1ccc(-c2cc(C(=O)N3CCC[C@@H](N)C3)sc2-c2ccc3nn(C4CCOCC4)cc3c2)cc1F [Hydrochloride of compound 64] |  | 
 | 122 | N#Cc1ccc(-c2cc(C(=O)N3CCC[C@@H](N)C3)sc2-c2ccc(OCC(=O)O)c(F)c2)cc1F [Hydrochloride of compound 30] | > 40000 | 
10.2 | 48.8 | CC(C)S(=O)(=O)c1ccc(-c2sc(C(=O)N3CCC[C@@H](N)C3)cc2-c2ccc(C#N)c(F)c2)cc1 [Hydrochloride of compound 47] |  | 
